Patent US20220370397A1, “METHODS AND COMPOSITIONS FOR TREATMENT OF CANCER” (Enzychem Lifesciences Corporation, priority 2019, published 2022)

How the values were obtained:
[1] = system: neutrophil-activated MDA-MB-231 breast cancer cells; assay: Cell growth and cell cycle activity in neutrophil-activated cancer cells; type: cell-based
From the text: Compared to negative control each week: *P<0.05, **P<0.01, ***P<0.001 (each experiment n=5). N.S., not significant. Compared to neutrophil stimulated only group each week: #P<0.05, ##P<0.01, ###P<0.001 (each experiment n=5). N.S.′, not significant.

PAR2 = PAR2 degradation (western blot, immunoprecipitation, ubiquitination assay); type: cell-based; settings: PLAG and neutrophil co-treated cancer cells / cancer tissues
[2] = system: MB49 murine bladder cancer cells; assay: MB49 bladder cancer syngeneic model, PLAG with or without PD-L1 antibody; type: in vivo, C57BL/6 mice
From the text: The syngeneic model was used (n=6) to investigate the enhanced anti-tumor effect of PD-L1 antibody with the addition of PLAG. MB49 murine bladder cancer cells were implanted into the C57BL/6 mice subcutaneously and bred for 5 weeks. After a week from tumor implantation, PLAG at different dosages (50/100 mpk) were daily administered orally for another 4 weeks with or without 5 mpk PD-L1 antibody (10F.9G2). PD-L1 antibody was delivered via IP injection once a week. (FIG. 7, Table 1)

LLC-1 lung carcinoma = assay: LLC-1 syngeneic model, PLAG with or without aPD-1; type: in vivo, C57BL/6 mice
From the text: To investigate the enhanced anti tumor effect of the anti-PD-1 antibody (aPD-1 with the addition of 1-palmitoyl-2-linoleoyk-3-acetyl-rac-glycerol (PLAG), the syngeneic model was used (n=6/group), LLC-1 lung carcinoma was implanted into C57BL/6 mice subcutaneously. PLAG was daily administrated for 4 weeks with or without aPD-1 (RMP 1-14. aPD-1 was delivered via IP injection once a week. The degree of infiltrated lymphocyte population and neutrophils in the tumor and blood on the sacrificed day were analyzed (FIG. 12, Table 2).

tumor in Xenograft mice = assay: PLAG alone in Xenograft mice (tumor mass, neutrophil infiltration, chemokines, cell cycle factors by IHC); type: in vivo, mouse
From the text: Compared to positive control: *P<0.05, ***P<0.001 (each experiment n=5).
Compared to positive control: *P<0.05, **P<0.01 (each experiment n=5).
N.S., not significant. Compared to positive control; #P<0.05, ##P<0.01, ###P<0.001 (each experiment n=5). N.S.′, not significant.
Compared to positive control: *P<0.05, **P<0.01 (each experiment n=5). N.S., not significant.

[3] = system: MDA-MB-231 breast cancer Xenograft; assay: MDA-MB-231 breast cancer Xenograft model, AC-regimen alone and PLAG co-treatment; type: in vivo, mouse
Procedure: MDA-MB-231 breast cancer Xenograft model was used. Tumor growth was evaluated in the AC-regimen alone and PLAG co-treated animals. AC-regimen was delivered via IP injection twice a week with dose of 2/20 and 5/50 mph (Doxorubicin/Cyclophosphamide), and PLAG was daily administered with 100 and 250 mpk. Tumor growth was calculated with 3 day intervals. Neutrophil chemotaxis related chemokines, CXCL1/2/8 and circulating neutrophils were also evaluated with 2 week internal. Expression of apoptosis molecular markers, Bax/Bak and tumor-infiltrating neutrophil (TIN) in the tumor lesion was analyzed by immunohistochemistry (IHC).

SMILES: CCCCC/C=C\C/C=C\CCCCCCCC(=O)OC(COC(C)=O)COC(=O)CCCCCCCCCCCCCCC (stereo not drawn) [PLAG, 1-palmitoyl-2-linoleoyl-3-acetylglycerol]
- cell cycle activity ([1]; neutrophil activated cancer cells): inhibitory effect
- cell growth ([1]; neutrophil-activated MDA-MB-231 cells, dose-dependent): inhibition of cell growth
- PAR2 degradation (PAR2): inducing PAR2 degradation
- number of TINs ([2]; PLAG alone): effectively reduced
- tumor burden compared to positive control ([2]; PLAG alone 50 and 100 mpk, oral daily, p<0.05): decreased to a significant value
- growth of the tumor compared to PD-L1 antibody alone ([2]; PLAG and PD-L1 antibody simultaneously): significantly reduced
- neutrophil-to-lymphocyte ratio (NLR) level compared to PD-L1 antibody alone ([2]; PLAG and PD-L1 antibody, blood, every two weeks): significantly decreased
- chemokine secretion ([2]; PLAG treated groups): reduced
- tumor burden compared to positive control (LLC-1 lung carcinoma; PLAG alone 50 and 100 mpk): significantly reduced
- activity and infiltration of cytotoxic T-Lymphocyte (CTLs) in the tumor compared to aPD-1 alone (LLC-1 lung carcinoma; PLAG co-treated with aPD-1): effectively increased
- neutrophil to lymphocyte ratio levels compared to aPD-1 alone (LLC-1 lung carcinoma; PLAG co-treated with aPD-1): decreased remarkably
- population of Th 17 compared to the positive control (LLC-1 lung carcinoma; PLAG co-treated with aPD-1): significant reduction
- tumor reduction compared to aPD-1 alone (LLC-1 lung carcinoma; PLAG co-treated with aPD-1): 18
- DAMP (adenosine) originated from tumor, plasma (LLC-1 lung carcinoma; PLAG treatment): rapid removal
- degree of neutrophil infiltration in the tumor (LLC-1 lung carcinoma; upon PLAG treatment): effectively reduced
- expression of neutrophil chemotactic chemokine in cancer tissues (tumor in Xenograft mice): effectively regulate
- infiltration of neutrophils in cancer tissues (tumor in Xenograft mice): control excessive infiltration of neutrophils
- cell cycle of cancer tissues / excessive growth (tumor in Xenograft mice; without additional chemotherapeutic agents): regulate excessive growth by inhibiting the cell cycle
- tumor tissue on the sacrifice day ([3]; 250 mpk PLAG co-treated with 5/50 AC-regimen): no tumor tissues were found
- tumor burden compared with AC-regimen alone group ([3]; PLAG 100 and 250 mpk daily co-treated with 5/50 AC-regimen, p<0.05): significantly decreased in a concentration-dependent manner
- tumor-infiltrating neutrophil (TIN) ([3]; PLAG added to AC-regimen, IHC): Significantly reduced
- chemokine expression ([3]; PLAG added to AC-regimen, chemokine analysis): Significantly reduced
- chemokine expression ([3]; PLAG alone): reduced
- tumor growth ([3]; PLAG alone): interruption of tumor growth
- tumor-infiltrating neutrophil (TIN) ([3]; PLAG alone): reduced
- kind of combined effect on regression of tumor burden ([3]; PLAG co-treated with AC-regimen): synergistic effect
- tumor burden compared with AC-regimen alone ([3]; PLAG co-treated with AC-regimen, until sacrifice): smaller tumor burden than that in AC-regimen alone
